# From patent publication US20240174693A1, “SOMATOSTATIN RECEPTOR SUBTYPE 4 (SSTR4) AGONISTS AND THEIR APPLICATIONS” (Humanwell Pharmaceutical US, priority 2022, published 2024)
# Key:
# SSTR4 = molecular target: T1, SSTR4 (Homo sapiens, UniProt P31391); assay: FLIPR assay for agonists, HEK293/Gα15/SSTR4 cells; assay type: cell-based; details: read-out: SSTR4 Agonist Activity in FLIPR Assay EC50
# T1 construct: host or cells: HEK293/Gα15/SSTR4
# Description: The study was carried out at HD Biosciences (Shanghai, China) according to the following steps.
# Step 1: Test compounds were diluted to a 400×stock solution in DMSO in a 384-well plate.
# Step 2: 1 μL of the compound solution was transferred from Step 1 to 79 μL of assay buffer, creating a 5×working solution in the 384-well plate using the Bravo method.
# Step 3: HEK293/Gα15/SSTR1-5 cells were cultured in DMEM medium (10% FBS).
# Step 4: When cells reached 80% confluence, the cells were separated using 0.25% trypsin-EDTA.
# Step 5: The cell density was measured and the cells diluted to 1×10^6/mL using DMEM (10% FBS).
# Step 6: 30 μL of cells were dispensed into each well of a Matrigel-coated 384-well plate (Corning 3764#) using a multi-channel pipette (30,000 cells per well) and cultured for 20-24 hours at 37° C. and 5% CO2.
# Step 7: 10 μL of dye was added to each well in the cell plate prepared in Step 6.
# Step 8: The dye and cells were incubated in the dark at 37° C. and 5% CO2 for 1 hour.
# Step 9: After 1 hour, the FLIPR program was loaded, the pipette tips placed cell plate and compound plate (from Step 2) into the machine, and the run button was pressed. The program added 10 μL to 40 μL to the cell plate. FLIPR was used to read the plate at room temperature according to the specified settings and the data was saved.
# SD rats [1] = assay: SD rat carrageenan acute inflammation model; assay type: in vivo; details: for Changes in Foot Swelling Rate (Mean ± SEM) / Foot Swelling Degrees (Mean ± SEM): SD rat carrageenan
# Description: Using an electronic caliper for accuracy, the thickness of the rat's footpad was measured. Rats were then restrained, and 100 μl of 1% carrageenan was subcutaneously injected into the right hind footpad to induce inflammation, thereby establishing an acute inflammation model using carrageenan. Each compound was administered in advance according to the respective dosing time points. The swelling of the rat's foot was measured at various time points: before modeling (0 h) and after modeling (2, 4, 7 h). A comparison was made between footpad swelling before and after modeling. […] The results of the carrageenan-induced acute inflammation model experiment are depicted in FIG. 1.
# SD rats [2] = assay: SD rat chronic constriction injury (CCI) model; assay type: in vivo; details: mechanical pain threshold 1, 2, 4 h post-administration, compound 8 single subcutaneous injection
# From the text: This model involves the use of a non-absorbable 5-0 suture to loosely ligate the sciatic nerve, causing slight compression of its outer sheath. Mechanical compression by the suture induces axonal damage, leading to abnormal discharge. Additionally, the local stimulation from the ligature induces the release of inflammatory mediators.
# Furthermore, CCI selectively damages the larger myelinated fibers of the sciatic nerve while preserving most of the unmyelinated C fibers responsible for transmitting pain.
# After initial screening, rats are sequentially numbered and randomly assigned to groups based on the numbering, using a random grouping method. Experimental groups are established based on trial conditions.
# [3] = Chemical stability in buffer; assay type: physicochemical; details: PBS(Ph 7.4) 10 um, 37° C.; read-out: Chemical Stability T½
# Description: 1 mM test compound spiking solution (spiking solution A) was prepared by adding 10 μL of 10 mM a test compound stock solution to 90 μL of DMSO. 396 μL of buffer were added into tubes designated for different time points. The samples were pre-warmed at 37° C. for 10 minutes. 4 μL of spiking solution A was added into the wells containing 396 μL of buffer that were designated as 0 min, 15 min, 45 min, or 60 min. The timer was started after the addition of the spiking solution. At each time point, 1200 μL of acetonitrile (ACN) containing an internal standard was added to the tubes. The samples were centrifuged at 10,000 rpm for 5 minutes and 100 μL of the supernatant was removed and analyzed by for LC-MS/MS analysis.
# [4] = Metabolic stability in liver microsomes (human); assay type: in vitro ADME
# Description: Buffers A-C were prepared for use in the metabolic study. The buffers were as follows: Buffer A: 1.0 L of 0.1 M monobasic Potassium Phosphate buffer containing 1.0 mM EDTA; Buffer B: 1.0 L of 0.1 M Dibasic Potassium Phosphate buffer containing 1.0 mM EDTA; and Buffer C: 0.1 M Potassium Phosphate buffer, 1.0 mM EDTA, pH 7.4 by titrating 700 mL of buffer B with buffer A while monitoring with the pH meter.
# Ketanserin was used as the reference compound. Reference compound and test compound spiking solutions (500 μM spiking solution) were prepared by adding 10 μL of 10 mM DMSO stock solution into 190 μL ACN. 1.5 μL of 500 μM spiking solution (0.75 mg/mL) and 18.75 μL of 20 mg/mL liver microsomes were added into 479.75 μL of Buffer C on ice.
# A 6 mM NADPH stock solution was prepared by dissolving an appropriate amount of NADPH into buffer C. 30 μL of 1.5 μM spiking solution containing 0.75 mg/mL microsomes solution was dispensed to the assay plates designated for different time points (0-, 5-, 15-, 30-, 45-min) on ice. […] All the other plates were pre-incubated at 37° C. for 5 minutes. 15 μL of 6 mM NADPH stock solution was added to the plates to start the reaction and time. At 5-min, 15-min, 30-min, and 45-min, 135 μL of ACN containing internal standard were added to the wells of corresponding plates, respectively, to stop the reaction. […]
# T1 sequence (P31391 whole entry): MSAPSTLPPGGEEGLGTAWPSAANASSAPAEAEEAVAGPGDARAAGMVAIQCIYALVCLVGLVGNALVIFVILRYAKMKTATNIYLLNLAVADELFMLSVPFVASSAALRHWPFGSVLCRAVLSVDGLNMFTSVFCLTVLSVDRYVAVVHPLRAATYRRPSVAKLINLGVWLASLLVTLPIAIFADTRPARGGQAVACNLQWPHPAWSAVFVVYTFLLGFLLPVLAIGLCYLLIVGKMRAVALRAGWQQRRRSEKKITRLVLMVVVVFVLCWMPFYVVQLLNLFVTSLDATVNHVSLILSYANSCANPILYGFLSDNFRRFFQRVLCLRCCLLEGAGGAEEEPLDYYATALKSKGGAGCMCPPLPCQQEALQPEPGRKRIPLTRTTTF
smiles,measurement,setting,value
"CC(C)(NC(=O)[C@H]1[C@@H]2CNC[C@H]1C2)c1ncc2c(Br)cccn12 [Compound 8, (1R,5S,6r)-N-(2-(8-bromoimidazo[1,5-a]pyridin-3-yl)propan-2-yl)-3-azabicyclo[3.1.1]heptane-6-carboxamide]",EC50,SSTR4,3.33 nM
same,Changes in Foot Swelling Rate (Mean ± SEM),SD rats [1]; 0 h (before modeling),0%
same,Foot Swelling Degrees (Mean ± SEM),SD rats [1]; 0 h (before modeling),4.02 ± 0.09 mm
same,Changes in Foot Swelling Rate (Mean ± SEM),SD rats [1]; 2 h after modeling,36.28 ± 5.75%
same,Foot Swelling Degrees (Mean ± SEM),SD rats [1]; 2 h after modeling,5.51 ± 0.13 mm
same,Changes in Foot Swelling Rate (Mean ± SEM),SD rats [1]; 4 h after modeling,42.25 ± 2.63%
same,Foot Swelling Degrees (Mean ± SEM),SD rats [1]; 4 h after modeling,5.78 ± 0.05 mm
same,Changes in Foot Swelling Rate (Mean ± SEM),SD rats [1]; 7 h after modeling,34.30 ± 4.17%
same,Foot Swelling Degrees (Mean ± SEM),SD rats [1]; 7 h after modeling,5.44 ± 0.11 mm
same,Anti-inflammatory effect in carrageenan model,"SD rats [1]; single subcutaneous injection of 30 mg/kg, SD rats",demonstrated anti-inflammatory tendencies
same,Effect on neuropathic pain in CCI model,SD rats [2],significantly affected the SD rat CCI model
same,half-life at 10 μM,[3],81.3 h
same,CLint scaled at 1 μM,[4]; pH 7.4,29.5 mL/min/kg
same,half-life at 1 μM,"[4]; pH 7.4, read-out: Metabolic stability T½",1.4 h
